Measurements as given in US20190211099A1, “METHODS AND COMPOSITIONS FOR TREATING CANCER WITH SIGLEC-9 ACTIVITY MODULATORS” (KING'S COLLEGE LONDON, priority 2016, published 2019).

What was measured:
macrophages [1] = test: Kynurenine in supernatant of MUC1-ST treated macrophages (Ehrlich Reagent); assay type: cell-based, human
Procedure: Given that IDO catalyzes the rate-limiting step in the metabolism of tryptophan, the tryptophan metabolite kynurenine was detected as follows. 604, supernatant was mixed with 304, 30% trichloroacetic acid (TCA) and incubated for 30 minutes at 50° C. The supernatant was spun at 3000×g and 50 μL was harvested and mixed with 50 μL freshly prepared Ehrlich Reagent (2% p-dimethylaminobenzaldehyde in glacial acetic acid). After 10 minutes optical density (O.D.) was measured at 492 nm, and concentrations were calculated against a kynurenine standard curve. An increase in the tryptophan metabolite kynurenine was observed (FIG. 11D).

[2] = tested on: recombinant Siglecs 3, 7, 9 and 10; test: Binding of biotinylated MUC1 glycoforms to plate-bound recombinant Siglec fusion proteins; parameters: species or system human; details: 2 μg/ml biotinylated MUC1 glycoform, 4 hours; panel Siglec 3, 5, 7, 8, 9 and 10
Procedure: Binding was enhanced when cells were pre-treated with 0.04 U/ml neuraminidase for 30 minutes at 37° C. in PBS (FIG. 3C), which removes competing cis-binding sialic acid sites from the surface of the cells. As this pattern is characteristic of binding to Siglecs (Macauley et al. (2014) NAT. REV. IMMUNOL. 14: 653-666), MUC1-ST binding to Siglecs was tested as follows: mouse anti human IgG was bound to plastic O/N and the plate was blocked using 1% BSA in PBS. Recombinant human Siglec (3, 5, 7, 8, 9 and 10) fusion proteins were added at 2 μg/mL for 2 hours. After incubation with 2 μg/ml biotinylated MUC1 glycoforms for 4 hours, O.D. was measured after the addition of streptavidin-HRP and substrate. […] Although Siglecs 3, 7 and 9 are expressed by monocytes and macrophages (FIG. 3D), a blocking antibody to Siglec-9 inhibited 80-95% of the MUC1-ST binding to these cells (FIGS. 2G-2I, 3E, and 5) indicating this is the dominant binding Siglec. […] Importantly, Siglec-9 bound to the breast cancer cell line T47D that expresses MUC1 carrying sialylated Core-1 glycans (FIG. 2J). Finally, isolated monocytes were bound to 10 μg/mL biotinylated MUC1-ST or 10 μg/mL biotinylated polyacrylamide carrying the ST glycan (PAA-ST; Glycotech).

monocytes = test: Nitric oxide release by monocytes (Griess method); assay type: cell-based, human
Procedure: MUC1-ST was further evaluated for its ability to produce pro-inflammatory nitric oxide, a product of the arginine processing enzyme (Thompson et al. (2015) CARCINOGENESIS 36: S232-S253). Supernatant was assessed using the Griess method according to the manufacturer's instructions (Biotium).

[3] = tested on: monocyte derived macrophages; test: Factors secreted by monocyte derived macrophages treated with MUC1-ST (ELISA); assay type: cell-based, human
Procedure: ELISAs for IL-6, IL-12p70, TGF-β1, PAI-1, M-CSF, EGF, SHP2, phospho-SHP2 (Biotechne) were all carried out as per manufacturer's instructions.
Secreted proteins from monocyte derived macrophages were assayed by ELISA as described in Example 2. […] All of these factors are associated with tumor progression (Duffy et al. (2014) BREAST CANCER RES. 16: 428; Jensen et al. (2002) CLIN. CANCER RES. 9:4423-4434). […] It has been discovered that MUC1-ST/Siglec-9 ‘educated’ monocytes and macrophages have a unique secretome.

[4] = tested on: monocyte derived dendritic cells; test: Differentiation of monocytes into dendritic cells; assay type: cell-based, human; details: MUC1-ST on day 0
Procedure: To differentiate monocytes into macrophages, CD14+ cells were plated at a concentration of 1×10^6/mL in AIM V medium (Lonza) with either 50 ng/mL recombinant human M-CSF or 50 ng/mL recombinant human GM-CSF (Bio-Techne). The cytokines were added every 3 days. The cells were incubated at 37° C., 5% CO2 for 7 days to fully differentiate, before being characterized as macrophages via phenotypic flow cytometric analysis. To differentiate monocytes into dendritic cells (moDC), CD14+ cells were plated at a concentration of 1×10^6/mL in AIM V medium with 1500 U/mL recombinant human IL-4 (Bio-Techne) and 400 U/mL human GM-CSF (Bio-Techne) for 6 days to fully differentiate, before being characterized as immature DCs via phenotypic flow cytometric analysis (Epics XL, Beckman Coulter or FACSCalibur, BD Biosciences plus WinMDI or Cellquest software). MoDCs were matured using 1 μg/mL LPS for 24 hours.
In addition, the effects of MUC1-ST on the differentiation of monocytes into dendritic cells were assessed. Briefly, monocytes were treated with MUC1-ST on day 0 and differentiated into immature dendritic cells (DCs) using IL-4 (1500 U/mL) and GM-CSF (400 U/mL) in AIM-V media for 6 days. Immature DCs were matured using 1 μg/mL LPS for 24 hours. […]

macrophages [5] = test: Phenotype of MUC1-ST treated macrophages (CD206, CD163, PD-L1; flow cytometry); assay type: cell-based, human
Procedure: Both the cell phenotype staining and neutralization studies described in the Examples were performed using the following antibodies (all anti-human): Siglec-9 (Biotechne; 191240), Siglec-9 FITC (Biotechne; 191240), Siglec-3 (Biotechne; 6C5/2), Siglec-7 (Biotechne; AF1138), Siglec-3 FITC (BD; P67.6), Siglec-7 PE (Biolegend; 6-434), Siglec-10 PE (Biolegend; 5G6), Siglec-1 (abcam; 7D2), HLA-DR FITC (Beckman Coulter; IM0463U), CD16 FITC (Biolegend; B73.1), CD14 FITC (BD 555397), CD69 PE (Beckman Coulter; IM1943), CD25 FITC (ABX228FITC), CD86 PE (Beckman Coulter; IM2729U), CD40 FITC (BD 555588), CD83 PE (Beckman Coulter; IM2218), CD163 PE (Biolegend; GHI/61), CXCR1 FITC (BD Pharmongen; 551126), CD45 PC5 (Beckman Coulter; IM2653U), CD206 PE (ebioscience; 19.2), PD-L1 PE (Biolegend; 29E.2A3), CD36 (Santa Cruz; H-300), TGFbetaRII (Bio-Techne; AF-241), IL-6Rα (Tocilizumab; Roche. A generous gift from Dr. Valerie Corrigall). Cells were suspended in PBS+0.5% BSA (2×10^5 cells/100 μL/sample) and incubated with Abs according to the manufacturer's instructions. At least 1×10^4 events were evaluated using either Epics XL, (Beckman Coulter) or FACSCalibur (BD Biosciences) flow cytometers. Analysis was performed using either WinMDI or Cellquest software.

“NeuAcα2,3Galβ1-3GalNAc linked via a Ser/Thr of MUC1 [MUC1-ST]” was tested, and the “tryptophan metabolite kynurenine in supernatant” value (macrophages [1]) was “increase”, the “binding to recombinant Siglec fusion proteins” value [2] was “bound” and the nitric oxide production (monocytes) was “produced nitric oxide”. The “secretion of M-CSF, PAI-1, chitinase 3-like-1 and EGF” value [3] was “increased secretion”, the “levels of CD86 (immature DCs) and of CD86 and CD83 (matured DCs)” value [4] was “lower levels” and the “expression of immune checkpoint ligand PD-L1” value (macrophages [5]) was “increased expression”. For the same substance, the “levels of mannose receptor (CD206) and scavenger receptor CD163” value (macrophages [5]) was “increased levels”.
